Assay results reported in patent US8729082B2, “Substituted imidazoquinoxalines” (Bayer Intellectual Property GmbH, priority 2009, dated 2014).

Biological target: T1, human kinase Mps-1 (Homo sapiens, UniProt P33981)
T1 construct: N-terminally GST-tagged human full length recombinant Mps-1 kinase; purchased Invitrogen, Karslruhe, Germany PV4071
T1 sequence (P33981 1-857): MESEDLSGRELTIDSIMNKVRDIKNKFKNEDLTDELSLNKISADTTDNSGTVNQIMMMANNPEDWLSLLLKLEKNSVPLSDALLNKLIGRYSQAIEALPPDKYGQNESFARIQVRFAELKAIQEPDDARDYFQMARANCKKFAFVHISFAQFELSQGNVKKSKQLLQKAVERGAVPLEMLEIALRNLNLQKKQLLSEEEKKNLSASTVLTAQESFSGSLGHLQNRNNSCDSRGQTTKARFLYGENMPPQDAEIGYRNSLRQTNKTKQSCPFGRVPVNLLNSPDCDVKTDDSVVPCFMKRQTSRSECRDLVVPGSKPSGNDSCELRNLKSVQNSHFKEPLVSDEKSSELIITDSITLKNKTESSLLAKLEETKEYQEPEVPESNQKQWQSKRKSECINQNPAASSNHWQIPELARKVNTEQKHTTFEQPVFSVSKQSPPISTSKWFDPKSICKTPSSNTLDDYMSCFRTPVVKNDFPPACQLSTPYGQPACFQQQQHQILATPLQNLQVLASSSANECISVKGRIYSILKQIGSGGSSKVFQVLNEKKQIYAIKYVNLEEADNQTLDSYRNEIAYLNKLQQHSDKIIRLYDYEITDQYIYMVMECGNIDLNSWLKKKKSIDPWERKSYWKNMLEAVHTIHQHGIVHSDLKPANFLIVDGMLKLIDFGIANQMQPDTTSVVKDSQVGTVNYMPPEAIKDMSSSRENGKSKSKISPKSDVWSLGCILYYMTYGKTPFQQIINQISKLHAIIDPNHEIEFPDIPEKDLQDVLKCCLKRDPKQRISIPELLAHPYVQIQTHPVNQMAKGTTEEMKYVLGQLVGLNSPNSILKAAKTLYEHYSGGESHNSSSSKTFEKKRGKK
Assay: Mps-1 kinase assay (HTRF)
Format: biochemical
Settings: lowATP; mean; read-out: Mps1 lowATP mean IC50
In short: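 HTRF readout: EDTA-stopped reactions incubated 1 h with europium anti-phospho(Ser/Thr) antibody and streptavidin-XLent, emission ratio 665/620 nm after 350 nm excitation. Kinase step: compound pre-bound 15 min to ~1 nM GST-Mps-1, then 60 min at 22 °C with ATP and biotin-peptide substrate; inhibition scaled between no-inhibitor (0%) and no-enzyme (100%) controls.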

Structure (SMILES) | IC50 [µM]
O=C(NC1CC1)c1ccc(-c2cnc3c(NCCCn4ccnc4)nc4cc(F)c(F)cc4n23)cc1Cl [Example 2-133, 2-chloro-N-cyclopropyl-4-(7,8-difluoro-4-{[3-(1H-imidazol-1-yl)propyl]amino}imidazo[1,2-a]quinoxalin-1-yl)benzamide] | 3.29
O=C(NC1CC1)c1ccc(-c2cnc3c(NCCCN4CCCC4=O)nc4ccc(F)cc4n23)cc1Cl [Example 2-77, 2-chloro-N-cyclopropyl-4-(8-fluoro-4-{[3-(2-oxopyrrolidin-1-yl)propyl]amino}imidazo[1,2-a]quinoxalin-1-yl)benzamide] | 10.1
CC(C)CNc1nc2ccccc2n2c(-c3ccsc3)cnc12 [Example 1-22, N-(2-methylpropyl)-1-(thiophen-3-yl)imidazo[1,2-a]quinoxalin-4-amine] | 5.14
CNC(=O)Nc1ccc(-c2cnc3c(NCCCN4CCCC4=O)nc4cc(F)c(F)cc4n23)cc1 [Example 2-115, 1-[4-(7,8-difluoro-4-{[3-(2-oxopyrrolidin-1-yl)propyl]amino}imidazo[1,2-a]quinoxalin-1-yl)phenyl]-3-methylurea] | 16.1
CC(C)CNc1nc2ccccc2n2c(-c3ccc(C(=O)NC4CCN(Cc5ccccc5)CC4)cc3)cnc12 [Example 3-7, N-(1-benzylpiperidin-4-yl)-4-{4-[(2-methylpropyl)amino]imidazo[1,2-a]quinoxalin-1-yl}benzamide] | 15.8
CC(C)CNc1nc2ccccc2n2c(-c3ccc(S(C)(=O)=O)cc3)cnc12 [Example 1-40, N-(2-methylpropyl)-1-[4-(methylsulfonyl)phenyl]imidazo[1,2-a]quinoxalin-4-amine] | 17.4
CC(=O)NCCNc1nc2cc(F)c(F)cc2n2c(-c3ccc(C(=O)NC4CC4)c(Cl)c3)cnc12 [Example 2-132, 4-(4-{[2-(acetylamino)ethyl]amino}-7,8-difluoroimidazo[1,2-a]quinoxalin-1-yl)-2-chloro-N-cyclopropylbenzamide] | 7.74
CNC(=O)Nc1ccc(-c2cnc3c(NCC(F)(F)F)nc4ccc(F)cc4n23)cc1 [Example 2-64, 1-(4-{8-fluoro-4-[(2,2,2-trifluoroethyl)amino]imidazo[1,2-a]quinoxalin-1-yl}phenyl)-3-methylurea] | 6.7
CC(C)CNc1nc2ccccc2n2c(-c3cccs3)cnc12 [Example 1-21, N-(2-methylpropyl)-1-(thiophen-2-yl)imidazo[1,2-a]quinoxalin-4-amine] | 3.31
Cc1ccccc1-c1cnc2c(NCC(C)C)nc3ccccc3n12 [Example 1-11, 1-(2-methylphenyl)-N-(2-methylpropyl)imidazo[1,2-a]quinoxalin-4-amine] | 13.9
CC(C)CNc1nc2ccccc2n2c(-c3cnn(C)c3)cnc12 [Example 1-18, N-(2-methylpropyl)-1-(1-methyl-1H-pyrazol-4-yl)imidazo[1,2-a]quinoxalin-4-amine] | 12.1
CNC(=O)Nc1ccc(-c2cnc3c(NCCCn4ccnc4)nc4ccc(F)cc4n23)cc1 [Example 2-67, 1-[4-(8-fluoro-4-{[3-(1H-imidazol-1-yl)propyl]amino}imidazo[1,2-a]quinoxalin-1-yl)phenyl]-3-methylurea] | 3.13
COCCNc1nc2ccc(F)cc2n2c(-c3ccc(C(=O)NC4CC4)c(Cl)c3)cnc12 [Example 2-78, 2-chloro-N-cyclopropyl-4-{8-fluoro-4-[(2-methoxyethyl)amino]imidazo[1,2-a]quinoxalin-1-yl}benzamide] | 6.7

The next compounds have a lower IC50 than those just listed; values first:

IC50 [µM] | Structure (SMILES)
0.312 | O=C(NC1CC1)c1ccc(-c2cnc3c(NCCc4cccc(F)c4)nc4ccccc4n23)cc1 [Example 2-22, N-cyclopropyl-4-(4-{[2-(3-fluorophenyl)ethyl]amino}imidazo[1,2-a]quinoxalin-1-yl)benzamide]
0.0156 | Cn1nccc1CNc1nc2cc(C#N)ccc2n2c(-c3ccc(C(=O)NC4CC4)cc3)cnc12 [Example 2-220, 4-(7-cyano-4-{[(1-methyl-1H-pyrazol-5-yl)methyl]amino}imidazo[1,2-a]quinoxalin-1-yl)-N-cyclopropylbenzamide]
0.584 | CC(=O)NCCNc1nc2cc(F)c(F)cc2n2c(-c3ccc(C(=O)NC4CC4)cc3)cnc12 [Example 2-102, 4-(4-{[2-(acetylamino)ethyl]amino}-7,8-difluoroimidazo[1,2-a]quinoxalin-1-yl)-N-cyclopropylbenzamide]
0.438 | O=C(NC1CC1)c1ccc(-c2cnc3c(NCCCN4CCOCC4)nc4cc(F)c(F)cc4n23)cc1 [Example 2-90, N-cyclopropyl-4-(7,8-difluoro-4-{[3-(morpholin-4-yl)propyl]amino}imidazo[1,2-a]quinoxalin-1-yl)benzamide]
0.0776 | N#Cc1ccc2c(c1)nc(NCCO)c1ncc(-c3ccc(C(=O)NC4CC4)cc3)n12 [Example 2-204, 4-{7-cyano-4-[(2-hydroxyethyl)amino]imidazo[1,2-a]quinoxalin-1-yl}-N-cyclopropylbenzamide]
0.0285 | Cn1nccc1CNc1nc2cc(F)c(F)cc2n2c(-c3ccc(C(=O)NC4CC4)cc3)cnc12 [Example 2-110, N-cyclopropyl-4-(7,8-difluoro-4-{[(1-methyl-1H-pyrazol-5-yl)methyl]amino}imidazo[1,2-a]quinoxalin-1-yl)benzamide]
0.0528 | O=C(NC1CC1)c1ccc(-c2cnc3c(NCc4ccco4)nc4cc(F)c(F)cc4n23)cc1 [Example 2-105, N-cyclopropyl-4-{7,8-difluoro-4-[(furan-2-ylmethyl)amino]imidazo[1,2-a]quinoxalin-1-yl}benzamide]
0.00264 | Cc1cc2nc(NCC3CC3)c3ncc(-c4ccc(C(=O)NC5CC5)cc4)n3c2cc1C [Example 2-150, N-cyclopropyl-4-{4-[(cyclopropylmethyl)amino]-7,8-dimethylimidazo[1,2-a]quinoxalin-1-yl}benzamide]
0.0671 | Cn1cc(CNc2nc3cc(C#N)ccc3n3c(-c4ccc(C(=O)NC5CC5)cc4)cnc23)cn1 [Example 2-221, 4-(7-cyano-4-{[(1-methyl-1H-pyrazol-4-yl)methyl]amino}imidazo[1,2-a]quinoxalin-1-yl)-N-cyclopropylbenzamide]
0.613 | N#Cc1ccc2c(c1)nc(NCc1ccccc1F)c1ncc(-c3ccc(C(=O)NC4CC4)c(Cl)c3)n12 [Example 2-238, 2-chloro-4-{7-cyano-4-[(2-fluorobenzyl)amino]imidazo[1,2-a]quinoxalin-1-yl}-N-cyclopropylbenzamide]
0.161 | COCCNc1nc2cc(F)c(F)cc2n2c(-c3ccc(C(=O)NC4CC4)cc3)cnc12 [Example 2-94, N-cyclopropyl-4-{7,8-difluoro-4-[(2-methoxyethyl)amino]imidazo[1,2-a]quinoxalin-1-yl}benzamide]
2.54 | Cn1ccc(CNc2nc3cc(C#N)ccc3n3c(-c4ccc(C(=O)NC5CC5)c(Cl)c4)cnc23)n1 [Example 2-251, 2-chloro-4-(7-cyano-4-{[(1-methyl-1H-pyrazol-3-yl)methyl]amino}imidazo[1,2-a]quinoxalin-1-yl)-N-cyclopropylbenzamide]
2.86 | CC(C)CNc1nc2ccccc2n2c(-c3ccc4c(c3)OCCO4)cnc12 [Example 1-4, 1-(2,3-dihydro-1,4-benzodioxin-6-yl)-N-(2-methylpropyl)imidazo[1,2-a]quinoxalin-4-amine]
1.47 | CNC(=O)Nc1ccc(-c2cnc3c(NCc4ccccc4F)nc4cc(C)c(C)cc4n23)cc1 [Example 2-163, 1-(4-{4-[(2-fluorobenzyl)amino]-7,8-dimethylimidazo[1,2-a]quinoxalin-1-yl}phenyl)-3-methylurea]
0.0985 | O=C(NC1CC1)c1ccc(-c2cnc3c(NCc4cccnc4)nc4ccc(F)cc4n23)cc1 [Example 2-54, N-cyclopropyl-4-{8-fluoro-4-[(pyridin-3-ylmethyl)amino]imidazo[1,2-a]quinoxalin-1-yl}benzamide]
0.0466 | O=C(NC1CC1)c1ccc(-c2cnc3c(NCc4cccs4)nc4ccccc4n23)cc1 [Example 2-18, N-cyclopropyl-4-{4-[(thiophen-2-ylmethyl)amino]imidazo[1,2-a]quinoxalin-1-yl}benzamide]
0.319 | CCCNc1nc2cc(F)c(F)cc2n2c(-c3ccc(C(=O)NC4CC4)c(Cl)c3)cnc12 [Example 2-124, 2-chloro-N-cyclopropyl-4-[7,8-difluoro-4-(propylamino)imidazo[1,2-a]quinoxalin-1-yl]benzamide]
0.00775 | CC(C)CNc1nc2ccccc2n2c(-c3ccc(C(=O)NC4CC4F)cc3)cnc12 (stereo not shown) [Example 3-21, N-(2-fluorocyclopropyl)-4-{4-[(2-methylpropyl)amino]imidazo[1,2-a]quinoxalin-1-yl}benzamide]
